Measured values: patent US4094908A, “Alpha-substituted benzhydrol derivatives” (Richter Gedeon Vegyeszeti Gyar Rt., priority 1973, dated 1978)

Columns and labels:
[1] = tested on: liver microsomal enzyme system; test: Promotion or inhibition of the liver microsomal enzyme system; assay type: in vivo; conditions: in words
Description: Tests per the methods described herein have shown compounds to be either effective in the promotion or inhibition of the liver microsomal enzyme system as follows: […]

hexobarbital oxidase [2] = test: Enzyme inhibiting ability in vivo: change of hexobarbital oxidase activity (hexobarbital narcosis period); design: species or system Female Wistar rats; conditions: in words, even 48 hours after administration
Experimental: (§1) Female Wistar rats, each weighing 80 to 100 g., were treated orally with a single 0.3 mM/kg. dosage of the active agent. 24 and 48 hours after the administration of the active agent, respectively, the animals were narcotized with 40 mg./kg. i.v. dosage of hexobarbital sodium, and the time elapsed until complete wakening was measured (Noordhock, J.: Eur. J. Pharmacol. 3, 242, 1968). The data were recorded, and the mean values, the standard errors, as well as the percentage increase with respect to the controls were calculated for each group. […] The hexobarbital concentration of the plasma, measured on the instant of wakening, was the same for both the treated and the control animals, thus the increase of narcosis period was not due to a certain central nervous interaction (Jori, A., Bianchatti, A., Presentini, P. E.: Biochem. Pharmacol. 19, 2687, 1970).

[3] = tested on: bromosulfophthalein elimination; test: Bromosulfophthalein (BSP) concentration of the plasm after pre-treatment; assay type: in vivo; conditions: 24 hours after pre-treatment; after i.v. bromsulfophthaleine
Experimental: The bromosulfophthalein (BSP) concentration of the plasm was determined 24 hours after pre-treatment with the compounds of the formula (I) and after the intravenous administration of bromsulfophthaleine, respectively (Varga, F., Fisher, E.: Acta Physiol. Hung. 36, 431, 1969).

hexobarbital oxidase [4] = test: Enzyme-inducing potency: in vivo hexobarbital oxidase activity (duration of hexobarbital narcosis); design: species or system Female Wistar rats; conditions: 24 hours before hexobarbital
Experimental: as §1, with “Female Wistar rats, each weighing 80 to 100 g., were treated orally with a single 0.3 mM/kg. dosage of the active agent.” left out
The enzyme-inducing potency of the new compounds was determined by several methods. One of these methods was the in vivo measurement of hexobarbital oxidase activity.
The decrease of narcosis period is due to the fact that the new compounds according to the invention accelerate the elimination of hexobarbital, a foreign substance, from the body. When administering the compound to be tested in a single dosage and measuring the duration of hexobarbital narcosis 24 hours after the administration, the following results are obtained: […]

central nervous system = assay type: in vivo, mice and rats; conditions: in words; in contrast with phenobarbital
Description: The central nervous activities of the compounds according to the invention were examined on mice and rats with the following methods: electroshock (Swinyard, E. A., Brown, W. C., Goodman, L. S.: J. Pharmacol. Exp. Ther. 106, 319, 1952), metrazol spasm (Everett, G. M., Richards, R. K.: J. Pharmacol. Exp. Ther. 81, 402: 1944), thiosemicarbezide spasm (Da Venzo, J. P. Greig, M. E., Cormin, M. A.: Amer. J. Physiol. 201, 833: 1961), strychnine spasm (Kerley, T. L., Richards, A. G., Begley, R. W., Abreu, B. B. Wesver, L. C.: J. Pharmacol. Exp. Ther. 132, 360: 1961), nicotine spasm (Stone, C. A., Mecklenburg, K. L., Torhans, M. L.: Arch. Int. Pharmacodyn. 117, 419: 1958), rotarod test (Kinnard, W. C., Carr, C. J.: J. Pharmacol. Expt. Ther. 121, 3, 54: 1957), physistigmine lethality preventing effect (Nose, T., Kojima, M.: Europ. J. Pharmacol. 10, 83: 1970), yohimbine potentiation effect (Quinton, R. M.: Brit. J. Pharmacol. 21, 51: 1963), and analgesic activity (Bianchi, G., Franceschini, J.: Brit. J. Pharm. Chemother. 9, 280: 1954). As reference substance, phenobarbital was used. […]

[5] = Toxicity: perished animals/tested animals; assay type: in vivo
Description: Despite its disadvantageous properties, phenobarbital is widely used in the treatment of neonatal jaundice. In order to enable a better comparison, Table 8 indicates the respective dosages in which phenobarbital causes lethal respiration paralysis, while the compounds according to the invention are completely innocuous.

[6] = tested on: UDP-glucoronyltransferase; test: UDP-glucuronyltransferase activity of liver tissues removed from pre-treated animals (bilirubin conjugation); assay type: in vivo; conditions: liver tissues of pre-treated animals incubated with bilirubin
Experimental: In an in vivo test, liver tissues removed from animals pre-treated with compounds of the formula (I) were incubated in the presence of bilirubin, in order to determine the UDP-glucoronyltransferase activity of the liver tissues (Adlard, B. P. F., Lester, R. G., Lathe, G. H.: Biochem Pharmacol. 18, 59, 1969).

[7] = tested on: liver microsomal enzyme system; test: Biological halving period of hexobarbital and hexobarbital concentration at wakening; assay type: in vivo; conditions: pre-treated 24 hours prior to hexobarbital; female rats 150 g
meprobamate elimination = test: Biological halving period of meprobamate after pre-treatment; assay type: in vivo; conditions: 24 hours after pre-treatment
Experimental: The biological halving period of meprobamate was determined 24 hours after pre-treatment with the compounds of the formula (I) (Ludwig, B. J., Hoffman, A. J.; Arch. Biochem. 72, 234, 1957).

bilirubin elimination = test: Bilirubin elimination under in vivo conditions; design: species or system rats
Experimental: When examining the bilirubin elimination under in vivo conditions on rats pre-treated with E 15 or phenobarbital, respectively, and challenged intravenously with a dosage of 30 mg./kg. of free bilirubin, the following biological halving periods were determined (Krueger, H., Higginson, J.: Proc. Soc. Exp. Biol. Med. 107, 43, 1961): […]

Row | SMILES | Potency among the enzyme inducing or inhibiting compounds [1] | Inhibition of the microsomal enzyme / xenobiotic elimination, duration (hexobarbital oxidase [2]) | BSP concentration of the plasm [3] | Sleeping period ± standard error (hexobarbital oxidase [4]; 5 mg./kg. single dosage) | Sleeping period ± standard error (hexobarbital oxidase [4]; 10 mg./kg. single dosage) | Sleeping period ± standard error (hexobarbital oxidase [4]; 20 mg./kg. single dosage) | Sleeping period ± standard error (hexobarbital oxidase [4]; 40 mg./kg. single dosage) | Central nervous effects (central nervous system) | Effect on the liver microsomal enzyme system (inducing or inhibiting) [1] | Duration and strength of inducing effect compared with phenobarbital [1] | Perished animals/tested animals ([5]; 40 mg./kg) | Perished animals/tested animals ([5]; 80 mg./kg) | Perished animals/tested animals ([5]; 160 mg./kg) | Perished animals/tested animals ([5]; 320 mg./kg) | Perished animals/tested animals ([5]; 640 mg./kg) | Conjugated bilirubine [6] | also measured
1 | CCN(CC)CCOc1ccc(C(O)(CC)c2ccccc2)cc1 (stereo not drawn) [E 17, 4-(β-diethylaminoethoxy)-α-ethyl-benzhydrol] | particularly potent | inhibit the elimination of xenobiotic agents and the inactivation thereof in the liver for a long time |  |  |  |  |  |  |  |  |  |  |  |  |  |  | Inhibition of the microsomal enzyme / xenobiotic elimination, duration (hexobarbital oxidase [2]; listed as 4-(β-diethylaminoethoxy)-α-ethyl-benzhydrol): long-lasting inhibition, the degree of which remains significant even 48 hours after administration
2 | CCC(O)(c1ccccc1)c1cccc(Cl)c1 (stereo not drawn) [E 9, 3-chloro-α-ethyl-benzhydrol] |  |  | 7.6 μg./mg. plasm | 21.7 ± 2.0 | 15.2 ± 1.4 | 13.6 ± 1.4 | 12.4 ± 1.2 | no central nervous effects | particularly advantageous inducing effect | reaches that of phenobarbital | 0/10 | 0/10 | 0/10 | 0/10 | 0/10 | 36.7 ± 3.2 µg/g/h | 
3 | CCC(O)(c1ccccc1)c1ccc(Cl)cc1Cl (stereo not drawn) [E 11, 2,4-dichloro-α-ethyl-benzhydrol] |  |  | 5.4 μg./mg. plasm | 22.0 ± 2.1 | 16.4 ± 1.6 | 15.0 ± 1.4 | 13.0 ± 1.2 | no central nervous effects | particularly advantageous inducing effect | reaches that of phenobarbital | 0/10 | 0/10 | 0/10 | 0/10 | 0/10 | 35.7 ± 2.8 µg/g/h | t1/2 (biological halving period of hexobarbital) [7]: 26 min.; t1/2 (biological halving period of meprobamate) (meprobamate elimination): 2.8 hours
4 | CCC(O)(c1ccccc1)c1cccc(C(F)(F)F)c1 (stereo not drawn) [E 15, 3-Trifluoromethyl-α-ethyl-benzhydrol] | particularly potent |  | 5.0 μg./mg. plasm | 18.0 ± 1.7 | 14.2 ± 1.5 | 10.6 ± 1.2 | 8.8 ± 0.9 | no central nervous effects | particularly advantageous inducing effect | reaches that of phenobarbital | 0/10 | 0/10 | 0/10 | 0/10 | 0/10 | 37.4 ± 3.6 µg/g/h | t1/2 (biological halving period of hexobarbital) [7]: 23 min.; t1/2 (biological halving period of meprobamate) (meprobamate elimination): 2.1 hours; t1/2 (biological halving period of bilirubin) (bilirubin elimination; pre-treated rats, 30 mg./kg. free bilirubin i.v.): 7 min; Acceleration of bilirubin elimination compared with phenobarbital (bilirubin elimination; rats, in words): about twice stronger than that of phenobarbital
5 | C=CC(O)(c1ccccc1)c1ccccc1F (stereo not drawn) [2-fluoro-α-vinyl-benzhydrol, 2-Fluoro-α-vinyl-benzhydrol] |  |  |  |  |  |  |  | no central nervous effects | particularly advantageous inducing effect | reaches that of phenobarbital |  |  |  |  |  |  | 
6 | C=CC(O)(c1ccccc1)c1ccc(OC)cc1OC (stereo not drawn) [2,4-dimethoxy-α-vinylbenzhydrol, 2,4-dimethoxy-α-vinyl-benzhydrol] | particularly potent | long-lasting inhibition, the degree of which remains significant even 48 hours after administration |  |  |  |  |  |  |  |  |  |  |  |  |  |  | 
7 | CCC(O)(c1ccccc1)c1cc(C)ccc1C (stereo not drawn) [E 20, 2,5-dimethyl-α-ethyl-benzhydrol] | particularly potent |  |  | 23.8 ± 1.9 | 18.76 ± 1.9 |  | 13.0 ± 1.2 | no central nervous effects | particularly advantageous inducing effect | reaches that of phenobarbital |  |  |  |  |  | 35.1 ± 2.6 µg/g/h | 
8 | C=CC(O)(c1ccccc1)c1ccc(Cl)c(Cl)c1 (stereo not drawn) [3,4-dichloro-α-vinylbenzhydrol, 3,4-dichloro-α-vinyl-benzhydrol] | particularly potent |  |  |  |  |  |  |  |  |  |  |  |  |  |  |  | 
9 | CCC(O)(c1ccccc1)c1ccccc1OC (stereo not drawn) [E 16, 2-methoxy-α-ethyl-benzhydrol] | particularly potent | inhibit the elimination of xenobiotic agents and the inactivation thereof in the liver for a long time |  |  |  |  |  |  |  |  |  |  |  |  |  |  | Inhibition of the microsomal enzyme / xenobiotic elimination, duration (hexobarbital oxidase [2]; listed as 2-methoxy-α-ethylbenzhydrol): long-lasting inhibition, the degree of which remains significant even 48 hours after administration
